Here are results for 7 compounds from PMC11411626 (2024).

Structures are written as SMILES.

In assay [1] the test system is CAG RNA oligonucleotide (RNA, repeat) GCAGCAGCUUCGGCAGCAGC
Briefly: fluorescence well-plate screening. The settings on record: buffer pH 7, 5 μM ligand, 1 equiv. RNA.

Assay [2] relates to CUG RNA motif (RNA, repeat) GGUCGCUGCUGCACGAAAGUGCUGCUGCGACC
Briefly: fluorescence well-plate screening. Particulars: buffer pH 7, 5 μM ligand, 1 equiv. RNA.

Assay [3] deals with CAG RNA oligonucleotide (RNA, repeat) GCAGCAGCUUCGGCAGCAGC
Put plainly: spectrophotometric titration. Particulars: 2a 5 μM, RNA/2a 0–4; SpecFit 1:1 fit.

Where [4] appears, read: no pronounced interaction, small fluorescence change.

Consider `COc1ccc(/C=C2\Oc3ccccc3C2=O)cc1`, for which the binding entry in assay [1] is “no”. As for `COc1ccc(/C=C2\Oc3cc(OCCN(C)C)ccc3C2=O)cc1`, the binding entry in assay [1] (setting [4]) is “no”. On to `CN(C)CCOc1ccc(/C=C2\Oc3cc(O)ccc3C2=O)cc1`, for which, in assay [1] (setting [4]), the binding entry is reported as “no”.

On to `O=C1/C(=C/c2c3ccccc3cc3ccccc23)Oc2ccccc21`, for which the binding entry is on record as “no” in assay [2] (excitation 450 nm, almost no interaction) and “yes” in assay [1] (21% light-up, aggregation prevented titration).

Consider `N=C(N)c1ccc(-c2ccc(-c3ccc(C(=N)N)cc3)o2)cc1`, for which, in assay [1] (57% quenching), the binding result is “yes”. For `CN(C)CCOc1ccc(/C=C2\Oc3cc(OCCN(C)C)ccc3C2=O)cc1`, the binding entry in assay [2] (absent or very weak interaction) is given as “no”. The K result in assay [3] is given as “(1.4 ± 0.1) × 10^5 M^-1”. As to `COc1cc(/C=C2\Nc3ccccc3C2=O)ccc1OCCCN(C)C`, the binding entry in assay [1] was “no”.
